What was measured:
[1] = Photodecomposition on illumination in fluorometer; assay type: physicochemical; conditions: % of decreased fluorescence intensity after 33 minutes of illumination in fluorometer at wavelength of maximum excitation
Method: *% of decreased fluorescence intensity after 33 minutes of illumination in
fluorometer at wavelength of maximum excitation

[2] = pH titration of fluorophores (pKa)
Method: The dye of interest is first dissolved in a series of buffers that have each been calibrated using a pH meter. Acetate buffers are typically used in the range of pH 46, and phosphate buffers in the pH range 68. Absorption measurements are made using solutions that are approximately 10 1M in concentration, and fluorescence measurements are made using solutions that are approximately 1 μM in concentration. The absorption or emission data is then plotted versus pH to determine pKa values.

[3] = Spectral properties of selected fluorinated fluoresceins and rhodols; assay type: physicochemical; conditions: for Abs.: absorption maximum; for Em.: emission maximum; for ε × 10^-3: extinction coefficient, value is ε × 10^-3; for Quantum Yield: fluorescence quantum yield
[4] = test system: rabbit polyclonal anti-fluorescein IgG (H+L) fraction; assay: Fluorescence quenching by anti-fluorescein antibody; assay type: binding; conditions: 5×10^-9 M dye
Method: Solutions of 5×10^-9 M fluorescein and 5×10^-9 M 2',7'-difluorofluorescein (Compound 29) are prepared in 100 mM potassium phosphate buffer, pH 8.0. The fluorescence of each solution is read with excitation at 490 nm. Sequential additions of 0.5 mg/mL rabbit polyclonal anti-fluorescein IgG (H+L) fraction (Molecular Probes, Inc.) are added and the fluorescence measurements are repeated.

[5] = approximate, from fluorescence emission versus pH (FIG. 3), in water
[6] = antibody volume 0 μL, pH 8.0, excitation 490 nm
[7] = antibody volume 2 μL of 0.5 mg/mL, pH 8.0
[8] = antibody volume 4 μL of 0.5 mg/mL, pH 8.0
[9] = antibody volume 6 μL of 0.5 mg/mL, pH 8.0
[10] = antibody volume 8 μL of 0.5 mg/mL, pH 8.0
[11] = antibody volume 10 μL of 0.5 mg/mL, pH 8.0
[12] = antibody volume 12 μL of 0.5 mg/mL, pH 8.0
[13] = antibody volume 15 μL of 0.5 mg/mL, pH 8.0
[14] = given in the synthesis examples

Row | Compound | photodecomposition [1] [%] | Abs. [3] [nm] | Em. [3] [nm] | ε × 10^-3 [3] [cm^-1 M^-1] | Quantum Yield [3] | pKa ([2]; Table 1) | other results
1 | 5-(and-6)-carboxy-2',4',5',7'-tetrafluorofluorescein [Compound 40] | 6.0 | 510 | 533 | 81.3 | 0.59 | 3.7 | –
2 | 5-(and-6)-carboxy-2',7'-difluorofluorescein | 9.0 | 492 | 516 | 85.9 | 0.92 | 4.8 | –
3 | 5-(and-6)-carboxy-7'-fluororhodol | 4.0 | 494 | 519 | – | – | 5.2 | –
4 | 5-(and-6)-carboxy-N,N-dimethyl-2'-fluororhodol | 5.0 | 519 | 553 | – | – | 4.2 | –
5 | 5-(and-6)-carboxy-N,N-dimethyl-7'-fluororhodol | 5.0 | 520 | 546 | – | – | 5.3 | –
6 | O=C1OC2(c3cc(Cl)c(O)cc3Oc3cc(O)c(Cl)cc32)c2ccccc21 [2',7'-dichlorofluorescein, reference compound] | – | – | – | – | – | 5.1 | pKa [2, 5]: ~ 5.1
7 | O=C(O)c1ccc(-c2c3cc(F)c(=O)cc-3oc3cc(O)c(F)cc23)c(S(=O)(=O)O)c1 [9-(4-carboxy-2-sulfo)-6-hydroxy-2,7-difluoro-3H-xanthene-3-one] | 7.3 | 497 | 517 | 83.8 | 0.92 | 4.3 | –
8 | O=C1OC2(c3cc(F)c(O)cc3Oc3cc(O)c(F)cc32)c2c(F)c(F)c(F)c(F)c21 [Compound 26, 2',4,5,6,7,7'-hexafluorofluorescein] | 4.0 | 508 | 527 | 81.2 | 0.96 | 4.8 | –
9 | O=C1OC2(c3cc(F)c(O)cc3Oc3cc(O)c(F)cc32)c2ccccc21 [Compound 29, 2',7'-difluorofluorescein] | 8.0 | 490 | 513 | 84.7 | 0.97 | 4.7 | pKa [2, 5]: ~ 4.7; Fluorescence Intensity [4, 6]: 100%; Fluorescence Intensity [4, 7]: 83.6%; Fluorescence Intensity [4, 8]: 67.3%; Fluorescence Intensity [4, 9]: 51.9%; Fluorescence Intensity [4, 10]: 36.5%; Fluorescence Intensity [4, 11]: 23.8%; Fluorescence Intensity [4, 12]: 13.4%; Fluorescence Intensity [4, 13]: 6.3%
10 | O=C1OC2(c3cc(Cl)c(O)cc3Oc3cc(O)c(Cl)cc32)c2c(F)c(F)c(F)c(F)c21 [Compound 37, 2',7'-dichloro4,5,6,7-tetrafluorofluorescein] | 3.0 | 520 | 538 | 88.5 | 0.80 | 4.2 | –
11 | O=c1c(F)c2oc3c(F)c(O)c(F)c(F)c3c(-c3c(F)c(F)c(F)c(F)c3F)c-2c(F)c1F [Compound 50, 1,2,4,5,7,8-hexafluoro-6-hydroxy-9-pentafluorophenylxanthen-3-one] | 4.0 | – | – | – | 0.11 | 2.8 | –
12 | CN(C)c1ccc2c(c1)Oc1cc(O)c(F)cc1C21OC(=O)c2ccccc21 (stereo not shown) [Compound 51, 2'-fluoro-N,N-dimethylrhodol] | – | – | – | – | – | – | pKa [2, 14]: 4.2
13 | Nc1cc2c(cc1F)C1(OC(=O)c3ccccc31)c1ccc(O)cc1O2 (stereo not shown) [Compound 52, 7'-fluororhodol] | – | – | – | – | – | – | pKa [2, 14]: 5.2
14 | CN(C)c1cc2c(cc1F)C1(OC(=O)c3ccccc31)c1ccc(O)cc1O2 (stereo not shown) [Compound 53, N,N-dimethyl-7'-fluororhodol] | – | – | – | – | – | – | pKa [2, 14]: 5.3
15 | Nc1ccc2c(c1)Oc1cc(O)c(F)cc1C21OC(=O)c2ccccc21 (stereo not shown) [Compound 54, 2'-fluororhodol] | – | – | – | – | – | – | pKa [2, 14]: 3.8
16 | O=C(O)CSc1c(F)c(F)c2c(c1F)C1(OC2=O)c2ccc(O)cc2Oc2cc(O)ccc21 [Compound 58, 6-carboxymethylthio-4,5,7-trifluorofluorescein] | 5.0 | 507 | 526 | 63.5 | 0.88 | 4.5 | –
17 | O=C1OC2(c3ccc(O)cc3Oc3cc(O)ccc32)c2ccccc21 [fluorescein, reference compound] | 17 | 490 | 514 | 82.2 | 0.92 | 6.5 | Fluorescence Intensity [4, 6]: 100%; Fluorescence Intensity [4, 7]: 84.6%; Fluorescence Intensity [4, 8]: 68.8%; Fluorescence Intensity [4, 9]: 54.3%; Fluorescence Intensity [4, 10]: 38.5%; Fluorescence Intensity [4, 11]: 22.9%; Fluorescence Intensity [4, 12]: 11.7%; Fluorescence Intensity [4, 13]: 4.4%

The next lines start with results.

Row | photodecomposition [1] [%] | Abs. [3] [nm] | Em. [3] [nm] | ε × 10^-3 [3] [cm^-1 M^-1] | Quantum Yield [3] | Compound | pKa ([2]; Table 1) | other results
18 | – | 504 | 530 | 80.3 | 0.75 | 5-(and-6)-carboxy-2',7'-dichlorofluorescein [reference compound] | – | –
19 | 4.0 | 495 | 518 | – | – | 5-(and-6)-carboxy-2'-fluororhodol [Compound 55] | 3.8 | –
20 | 11 | 510 | 534 | 84.2 | 0.43 | 5-(and-6)-carboxy-4',5'-difluorofluorescein [Compound 41] | 5.2 | –
21 | – | 518 | 544 | – | 0.26 | 5-(and-6)-carboxy-N,N-dimethylrhodol [reference compound] | – | –
22 | 4.0 | 494 | 521 | 69.6 | 0.89 | 5-(and-6)-carboxyrhodol [reference compound] | 5.6 | –
23 | – | 507 | 526 | 87.5 | 0.86 | O=C(O)CSc1c(F)c(F)c2c(c1F)C1(OC2=O)c2cc(F)c(O)cc2Oc2cc(O)c(F)cc21 [Compound 59, 6-carboxymethylthio-2',4,5,7,7'-pentafluorofluorescein] | – | –
24 | – | 503 | 522 | 77.5 | 0.053 | Nc1c(F)c(F)c2c(c1F)C1(OC2=O)c2ccc(O)cc2Oc2cc(O)ccc21 [Compound 68, 6-amino-4,5,7-trifluorofluorescein] | – | –
25 | – | 507 | 527 | 79.9 | 0.92 | [N-]=[N+]=Nc1c(F)c(F)c2c(c1F)C1(OC2=O)c2ccc(O)cc2Oc2cc(O)ccc21 [Compound 78, 6-azido-4,5,7-trifluorofluorescein] | – | –

Reference: patent US6229055A, “Synthesis of fluorinated xanthene derivatives” (Molecular Probes, Inc., priority 2000, dated 2001)
